The OligoGym collection
Several values for one entry are separate records, joined by “and”; a condition that tells them apart may be missing. Equal entries are not always repeated. After the bases stand the sugars from the 5' end (letter, count) and the backbone: PS all phosphorothioate, else s phosphorothioate and o phosphodiester by linkage. Methylation of C is not given here. e = 2'-O-(2-methoxyethyl) (MOE); k = constrained ethyl (cEt); d = 2'-deoxy (DNA)

Key:
KRAS = details: ASO
IRF5 = details: ASO

Sequence | target mRNA inhibition (KRAS; A431, 2 µM) | further results
AAAAAATTAATGTCTT (sugars k3 d10 k3, PS) | 9% | –
AAAACAAATGCTAATA (sugars k3 d10 k3, PS) | 12% | –
AAAATTAATGTCTTGG (sugars k3 d10 k3, PS) | 12% | –
AAATCTGAATTAGTCT (sugars k3 d10 k3, PS) | 25% | –
AAATGCTAATAATTTA (sugars k3 d10 k3, PS) | 13% | –
AAGATGGTGTAACATA (sugars k3 d10 k3, PS) | 30% | –
AATCTTATGGTTAGGG (sugars k3 d10 k3, PS) | 45% | target mRNA inhibition (KRAS; A431, 0.185 µM): 2%; target mRNA inhibition (KRAS; A431, 0.556 µM): 2%; target mRNA inhibition (KRAS; A431, 1.667 µM): 35%; target mRNA inhibition (KRAS; A431, 5 µM): 52%
AATCTTTTAATGTCAC (sugars k3 d10 k3, PS) | 44% | –
AATGCTAATAATTTAG (sugars k3 d10 k3, PS) | 0% | –
AATTAGTGATTAGGTC (sugars k3 d10 k3, PS) | 32% | –
AATTGTGCAATGGTGA (sugars k3 d10 k3, PS) | 46% | –
ACCAGTGTTAAGAGAA (sugars k3 d9 k3 e1, PS) | 44% | –
ACCAGTGTTAAGAGAA (sugars k3 d10 k3, PS) | 60% | target mRNA inhibition (KRAS; A431, 0.185 µM): 5% and 3%; target mRNA inhibition (KRAS; A431, 0.556 µM): 39% and 19%; target mRNA inhibition (KRAS; A431, 1.667 µM): 59% and 43%; target mRNA inhibition (KRAS; A431, 5 µM): 72% and 60%
ACCAGTGTTAAGAGAA (sugars kddddddddddkekek, PS) | 44% | –
ACCAGTGTTAAGAGAA (sugars kkddddddddddkeke, PS) | 42% | –
ACCAGTGTTAAGAGAA (sugars kkdddddddddkekek, PS) | 49% | –
ACCATTCAAAGTTCAC (sugars kddddddddddkekek, PS) | 18% | –
ACCATTCAAAGTTCAC (sugars kkkdddddddddkeke, PS) | 30% | –
ACTCTCTATGAAAGCT (sugars k3 d10 k3, PS) | 29% | –
ACTTTTTGACAAATGG (sugars k3 d10 k3, PS) | 46% | –
AGATTGTGCTGAGCTT (sugars kkkddddddddkdkdk, PS) | 42% | –
AGGAGTCTTTATAGTA (sugars kddddddddddkekek, PS) | 31% | –
AGGAGTCTTTATAGTA (sugars kkddddddddddkeke, PS) | 40% | –
AGGAGTCTTTATAGTA (sugars kkkddddddddkdkdk, PS) | 30% | –

Sequence | target mRNA inhibition (KRAS; A431, 2 µM) | further results
AGGAGTCTTTATAGTA (sugars kkkddddddddkekek, PS) | 22% | –
AGTATTAACACAGAAG (sugars k3 d10 k3, PS) | 27% | –
AGTGATTAGGTCAAAT (sugars k3 d10 k3, PS) | 23% | –
AGTGTGACTCAGTTAA (sugars kkkddddddddkekek, PS) | 29% | –
AGTGTTTATGCAATGT (sugars k3 d10 k3, PS) | 69% and 50% | target mRNA inhibition (KRAS; A431, 0.185 µM): 27% and 9%; target mRNA inhibition (KRAS; A431, 0.556 µM): 46% and 21%; target mRNA inhibition (KRAS; A431, 1.667 µM): 65% and 46%; target mRNA inhibition (KRAS; A431, 5 µM): 83% and 67%
ATAGTTTCCATTGCCT (sugars k3 d10 k3, PS) | 50% and 65% | target mRNA inhibition (KRAS; A431, 1.667 µM): 64% and 45%; target mRNA inhibition (KRAS; A431, 5 µM): 75% and 70%
ATCAACTGCATGCACC (sugars k3 d10 k3, PS) | 42% | –
ATGCAATGTTAATTTA (sugars k3 d10 k3, PS) | 9% | –
ATGCTGTGAAACTCTC (sugars k3 d9 k3 e1, PS) | 37% | –
ATGCTGTGAAACTCTC (sugars kdddddddddkekeke, PS) | 24% | –
ATTAATCCATTTATGT (sugars k3 d10 k3, PS) | 3% | –
ATTACTTATGCAGAGA (sugars k3 d10 k3, PS) | 60% | –
ATTGTGCTGAGCTTGA (sugars kddddddddddkekek, PS) | 34% | –
ATTGTGCTGAGCTTGA (sugars kkddddddddkekekk, PS) | 31% | –
ATTGTTTAAAAAAAAA (sugars k3 d10 k3, PS) | 0% | –
ATTTCTGATGTGACTC (sugars k3 d10 k3, PS) | 49% | –
ATTTGTCAGCAGGACC (sugars k3 d10 k3, PS) | 35% | –
CAAATGCTAATAATTT (sugars k3 d10 k3, PS) | 0% | –
CAGTATTAACACAGAA (sugars k3 d10 k3, PS) | 7% | –
CAGTGTGACTCAGTTA (sugars k3 d9 k3 e1, PS) | 42% | –
CAGTGTGACTCAGTTA (sugars kkddddddddkekekk, PS) | 63% | target mRNA inhibition (KRAS; A431, 0.185 µM): 0%; target mRNA inhibition (KRAS; A431, 0.556 µM): 36%; target mRNA inhibition (KRAS; A431, 1.667 µM): 58%; target mRNA inhibition (KRAS; A431, 5 µM): 67%
CATGTAAATATAGCCC (sugars k3 d10 k3, PS) | 5% | –
CATTGCTAGTTCAAAA (sugars k3 d10 k3, PS) | 9% | –
TCTGATATGATACCTA (sugars k3 d1 k1 d8 k3, PS) | – | target mRNA inhibition (IRF5; A-431, 0.00412 µM): 0%; target mRNA inhibition (IRF5; A-431, 0.01225 µM): 7%; target mRNA inhibition (IRF5; A-431, 0.03704 µM): 43%; target mRNA inhibition (IRF5; A-431, 0.11111 µM): 65%; target mRNA inhibition (IRF5; A-431, 0.33333 µM): 81%; target mRNA inhibition (IRF5; A-431, 1 µM): 85%
